Data from the CombiSolv-Exp solvation set (Vermeire and Green 2021).

Assay: solvent given as SMILES

c1ccc2c(c1)ccc1c3ccccc3ccc21
solvation free energy, 298 K (in CCCCCCCCC=CCCCCCCCC(=O)OCC(COC(=O)CCCCCCCC=CCCCCCCCC)OC(=O)CCCCCCCC=CCCCCCCCC): -13.9 kcal/mol
solvation free energy, 298 K (in O): -6.53 kcal/mol

CC(=O)OCC1=CCC2CC1C2(C)C (stereo not drawn)
solvation free energy, 298 K (in O): -3.6 kcal/mol

Fc1c(F)c(F)c(F)c(F)c1F
solvation free energy, 298 K (in C1CCOC1): -4.5 kcal/mol
solvation free energy, 298 K (in C1COCCO1): -4.23 kcal/mol
solvation free energy, 298 K (in CC(C)CC(C)(C)C): -3.53 kcal/mol
solvation free energy, 298 K (in CC(C)OC(C)C): -4.13 kcal/mol
solvation free energy, 298 K (in CCCCO): -3.46 kcal/mol
solvation free energy, 298 K (in CCOCC): -4.35 kcal/mol
solvation free energy, 298 K (in O): 0.1 kcal/mol

CCOc1ccccc1
solvation free energy, 298 K (in CCCCCC): -6.02 kcal/mol
solvation free energy, 298 K (in O): -2.22 kcal/mol

O=[N+]([O-])c1ccccc1
solvation free energy, 298 K (in CCCCCC): -6.09 kcal/mol
solvation free energy, 298 K (in CCCCCCC): -6.14 kcal/mol
solvation free energy, 298 K (in CCCCCCCCCCCCCCCC): -6.12 kcal/mol
solvation free energy, 298 K (in O): -4.23 kcal/mol

C=C(C)C1CC=C(C=O)CC1 (stereo not drawn)
solvation free energy, 298 K (in O): -4.09 kcal/mol

Cc1nc(N(C)C)nc(OC(=O)N(C)C)c1C
solvation free energy, 298 K (in O): -9.41 kcal/mol

CCc1ccccc1O
solvation free energy, 298 K (in CCCCCC): -6.6 kcal/mol
solvation free energy, 298 K (in O): -5.85 kcal/mol

C=CC(C)(CCC=C(C)C)OC(=O)CCC (stereo not drawn)
solvation free energy, 298 K (in O): -3.38 kcal/mol

CN1CCNCC1
solvation free energy, 298 K (in O): -7.77 kcal/mol

ClC1=C(Cl)C2(Cl)C3C(Cl)CC(Cl)C3C1(Cl)C2(Cl)Cl (stereo not drawn)
solvation free energy, 298 K (in O): -3.44 kcal/mol

OC(F)(C(F)F)C(F)(F)F (stereo not drawn)
solvation free energy, 298 K (in CO): -6.53 kcal/mol

CCC(C)(C)O
solvation free energy, 298 K (in CC(=O)CC(C)=O): -5.07 kcal/mol
solvation free energy, 298 K (in CCCCCCC): -3.85 kcal/mol
solvation free energy, 298 K (in CCCCCCCC): -3.99 kcal/mol
solvation free energy, 298 K (in CCCCCCCCCC): -3.99 kcal/mol
solvation free energy, 298 K (in O): -4.43 kcal/mol

Oc1cccc(Cl)c1
solvation free energy, 298 K (in CCCCCC): -6.52 kcal/mol
solvation free energy, 298 K (in CCCCCCC): -6.51 kcal/mol
solvation free energy, 298 K (in CCCCCCCC): -6.48 kcal/mol
solvation free energy, 298 K (in CCCCCCCCCC): -6.48 kcal/mol
solvation free energy, 298 K (in Cc1ccc(C)cc1): -7.97 kcal/mol
solvation free energy, 298 K (in Cc1cccc(C)c1): -8.05 kcal/mol
solvation free energy, 298 K (in Cc1ccccc1C): -8.07 kcal/mol
solvation free energy, 298 K (in O): -6.62 kcal/mol

CC(C(=O)O)c1ccc(-c2ccccc2)c(F)c1 (stereo not drawn)
solvation free energy, 298 K (in C1COCCO1): -16.2 kcal/mol
solvation free energy, 298 K (in CC(C)=O): -16.1 kcal/mol
solvation free energy, 298 K (in CCCCCCCO): -15.6 kcal/mol
solvation free energy, 298 K (in CCCCCCO): -15.6 kcal/mol
solvation free energy, 298 K (in CCCCCO): -15.7 kcal/mol
solvation free energy, 298 K (in CCCCO): -15.7 kcal/mol
solvation free energy, 298 K (in CCCO): -15.8 kcal/mol
solvation free energy, 298 K (in CCO): -15.9 kcal/mol
solvation free energy, 298 K (in CCOC(C)=O): -15.9 kcal/mol
solvation free energy, 298 K (in CO): -15.9 kcal/mol
solvation free energy, 298 K (in O): -8.42 kcal/mol

CC(C)C=O
solvation free energy, 298 K (in CC(=O)N(C)C): -4.04 kcal/mol
solvation free energy, 298 K (in CCCCN(C=O)CCCC): -3.78 kcal/mol
solvation free energy, 298 K (in CCOC(C)=O): -4.05 kcal/mol
solvation free energy, 298 K (in CN1CCCC1=O): -3.79 kcal/mol
solvation free energy, 298 K (in CN1CCCCC1=O): -3.92 kcal/mol
solvation free energy, 298 K (in CN(C)C=O): -4.09 kcal/mol
solvation free energy, 298 K (in CNC(C)=O): -3.68 kcal/mol
solvation free energy, 298 K (in O): -2.86 kcal/mol
solvation free energy, 298 K (in O=CN1CCOCC1): -3.63 kcal/mol

CC(C)(C)Cl
solvation free energy, 298 K (in Brc1cccc2ccccc12): -3.15 kcal/mol
solvation free energy, 298 K (in Brc1ccccc1): -3.44 kcal/mol
solvation free energy, 298 K (in C1CCCCC1): -3.64 kcal/mol
solvation free energy, 298 K (in C1CCOCC1): -3.82 kcal/mol
solvation free energy, 298 K (in C1COCCO1): -3.36 kcal/mol
solvation free energy, 298 K (in C=CCCCCCCCCCCCCCC): -3.07 kcal/mol
solvation free energy, 298 K (in CC(=O)N(C)C): -3.1 kcal/mol
solvation free energy, 298 K (in CC(=O)OCc1ccccc1): -3.28 kcal/mol
solvation free energy, 298 K (in CC(C)(C)O): -2.95 kcal/mol
solvation free energy, 298 K (in CC(C)=O): -3.46 kcal/mol
solvation free energy, 298 K (in CC(C)CC(C)(C)C): -3.29 kcal/mol
solvation free energy, 298 K (in CC(C)OC(C)C): -3.53 kcal/mol
solvation free energy, 298 K (in CC(O)C(C)O): -2.37 kcal/mol
solvation free energy, 298 K (in CC(O)CCO): -2.14 kcal/mol
solvation free energy, 298 K (in CC(O)CO): -2.29 kcal/mol
solvation free energy, 298 K (in CCC(C)=O): -3.66 kcal/mol
solvation free energy, 298 K (in CCC(O)CO): -2.76 kcal/mol
solvation free energy, 298 K (in CCCCCC): -3.43 kcal/mol
solvation free energy, 298 K (in CCCCCCC): -3.47 kcal/mol
solvation free energy, 298 K (in CCCCCCCC): -3.35 kcal/mol
solvation free energy, 298 K (in CCCCCCO): -3.14 kcal/mol
solvation free energy, 298 K (in CCCCCO): -3.23 kcal/mol
solvation free energy, 298 K (in CCCCO): -3.08 kcal/mol
solvation free energy, 298 K (in CCO): -3.22 kcal/mol
solvation free energy, 298 K (in CCOC(C)=O): -3.66 kcal/mol
solvation free energy, 298 K (in CCOCC): -3.38 kcal/mol
solvation free energy, 298 K (in CN1CCCC1=O): -2.97 kcal/mol
solvation free energy, 298 K (in CN(C)C=O): -3.15 kcal/mol
solvation free energy, 298 K (in CNC=O): -3.02 kcal/mol
solvation free energy, 298 K (in CO): -3.11 kcal/mol
solvation free energy, 298 K (in COC(C)(C)C): -3.7 kcal/mol
solvation free energy, 298 K (in COCCO): -3.3 kcal/mol
solvation free energy, 298 K (in Cc1ccc(C)cc1): -3.58 kcal/mol
solvation free energy, 298 K (in ClC(Cl)(Cl)Cl): -3.66 kcal/mol
solvation free energy, 298 K (in ClCCCl): -3.69 kcal/mol
solvation free energy, 298 K (in Clc1ccccc1): -3.56 kcal/mol
solvation free energy, 298 K (in N#Cc1ccccc1): -3.15 kcal/mol
solvation free energy, 298 K (in O): 1.09 kcal/mol
solvation free energy, 298 K (in O=C1CCCCC1): -3.64 kcal/mol
solvation free energy, 298 K (in OCCO): -1.8 kcal/mol
solvation free energy, 298 K (in OCCOCCO): -2.39 kcal/mol
solvation free energy, 298 K (in OCCOCCOCCO): -2.49 kcal/mol
solvation free energy, 298 K (in c1ccc2ncccc2c1): -3.18 kcal/mol
solvation free energy, 298 K (in c1ccccc1): -3.93 kcal/mol

CCCCCCCOC(=O)c1ccccc1C(=O)OCCCCCC
solvation free energy, 298 K (in O): -6.67 kcal/mol

COc1cccc(OC)c1O
solvation free energy, 298 K (in O): -6.96 kcal/mol

CCCN(C)N=O
solvation free energy, 298 K (in CC(C)CC(C)(C)C): -4.99 kcal/mol

C=C(C)C1CCC(C)C(=O)C1 (stereo not drawn)
solvation free energy, 298 K (in O): -3.75 kcal/mol

COC(C)(OC)OC
solvation free energy, 298 K (in O): -4.42 kcal/mol

Clc1cc(Cl)c(-c2cc(Cl)ccc2Cl)c(Cl)c1
solvation free energy, 298 K (in O): -2.25 kcal/mol

C=C1C2CCC3C2C(C)(C)CCCC13C (stereo not drawn)
solvation free energy, 298 K (in O): 0.8 kcal/mol

Cc1cc(O)ccc1Cl
solvation free energy, 298 K (in O): -6.79 kcal/mol

Clc1cc(-c2cc(Cl)c(Cl)c(Cl)c2Cl)c(Cl)c(Cl)c1Cl
solvation free energy, 298 K (in CCCCCCCCO): -15.2 kcal/mol
solvation free energy, 298 K (in O): -3.77 kcal/mol

CC(C)COC(=O)C(C)C
solvation free energy, 298 K (in O): -1.69 kcal/mol

O=Nc1ccc2ccccc2c1O
solvation free energy, 298 K (in O): -8.79 kcal/mol

CCCCCCc1cccc2ccccc12
solvation free energy, 298 K (in OCCOCCO): -8.95 kcal/mol

C=CC(C)(O)CCC=C(C)C (stereo not drawn)
solvation free energy, 298 K (in O): -4.17 kcal/mol

CC12CCC(=O)C=C1CCC1C2C(O)CC2(C)C1CCC2(O)C(=O)CO (stereo not drawn)
solvation free energy, 298 K (in C=CCCCCCCC=C): -21.7 kcal/mol
solvation free energy, 298 K (in C=CCCCCCCCCCCCCCC): -20.9 kcal/mol
solvation free energy, 298 K (in O): -25.4 kcal/mol
